Active and inactive are the calls of the source.
Assays:
[1] = test system: Vero; assay: Vero cell cytotoxicity, cytotoxicity control for flavivirus capping enzyme inhibitors (AID 588742); type: functional; conditions: Chlorocebus sabaeus
[2] = molecular target: ATP-dependent molecular chaperone HSP82 (Candida albicans (strain WO-1) (Yeast), UniProt C4YTQ8); assay: loss of DOC-induced GRE-beta-galactosidase reporter signal, dose response, Hsp90 inhibitor project, S. cerevisiae, luminescence (AID 2400); type: functional, cell-based;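 also: beta-galactosidase luminescence from glucocorticoid response element reporter as proxy for Hsp90 function; inhibitor potency where signal loss means Hsp90 inhibition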
Sequence of ATP-dependent molecular chaperone HSP82 (C4YTQ8 whole entry): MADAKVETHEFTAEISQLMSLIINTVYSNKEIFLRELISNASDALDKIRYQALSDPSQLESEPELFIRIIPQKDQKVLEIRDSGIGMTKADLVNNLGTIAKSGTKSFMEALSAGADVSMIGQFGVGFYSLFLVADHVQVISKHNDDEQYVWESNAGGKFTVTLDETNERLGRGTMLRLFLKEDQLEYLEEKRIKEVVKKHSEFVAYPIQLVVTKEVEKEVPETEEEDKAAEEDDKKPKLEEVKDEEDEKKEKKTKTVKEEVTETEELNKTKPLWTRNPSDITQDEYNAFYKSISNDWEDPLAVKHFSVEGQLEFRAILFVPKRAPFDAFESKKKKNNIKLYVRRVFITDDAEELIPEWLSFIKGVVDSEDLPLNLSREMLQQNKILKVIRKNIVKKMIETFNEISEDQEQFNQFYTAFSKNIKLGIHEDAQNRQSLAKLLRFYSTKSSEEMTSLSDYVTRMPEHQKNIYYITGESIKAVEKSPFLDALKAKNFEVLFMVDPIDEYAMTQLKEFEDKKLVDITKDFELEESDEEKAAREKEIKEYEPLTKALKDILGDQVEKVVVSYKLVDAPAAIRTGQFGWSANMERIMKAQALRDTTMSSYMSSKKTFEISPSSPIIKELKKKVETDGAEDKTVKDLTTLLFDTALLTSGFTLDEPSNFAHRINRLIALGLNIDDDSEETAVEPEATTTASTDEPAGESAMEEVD

[3] = NIH-3T3 fibroblast cytotoxicity, dose response, cytotoxicity control, cell-based, fluorescence, Alamar Blue, secondary assay (AID 2327); type: functional;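 also: NIH-3T3 mouse fibroblasts cultured with fluconazole at 8 µg/mL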
[4] = C. albicans growth with fluconazole, confirmation, fluorescence, retest (AID 2467); type: functional, cell-based
[5] = molecular target: Protein Wnt-3a (Mus musculus, UniProt P27467); assay: Wnt3a-driven reporter signaling inhibition, dose response, selectivity assay for Gli-SUFU antagonist project, Wnt-LIGHT cells, luminescence (AID 651570); type: functional; conditions: read-out: IC50_Mean;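 also: Wnt-LIGHT reporter cells stimulated with conditioned medium from Wnt3a-producing cells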
Sequence of Protein Wnt-3a (P27467 whole entry): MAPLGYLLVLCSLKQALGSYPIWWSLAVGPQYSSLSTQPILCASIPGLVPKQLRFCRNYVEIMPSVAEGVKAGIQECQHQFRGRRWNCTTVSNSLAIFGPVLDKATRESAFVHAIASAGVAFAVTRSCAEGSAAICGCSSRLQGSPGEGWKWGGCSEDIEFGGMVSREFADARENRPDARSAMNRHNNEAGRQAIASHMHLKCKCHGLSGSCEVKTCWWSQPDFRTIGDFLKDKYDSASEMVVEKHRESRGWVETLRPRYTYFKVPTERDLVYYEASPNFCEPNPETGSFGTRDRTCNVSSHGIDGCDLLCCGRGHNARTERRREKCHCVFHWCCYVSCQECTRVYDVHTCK

[6] = molecular target: T1, Serine/threonine-protein phosphatase (Candida dubliniensis (strain CD36 / CBS 7987 / NCPF 3949 / NRRLY-17841) (Yeast), UniProt B9W6M3); assay: calcineurin pathway inhibitors in yeast reporter, dose response, S. cerevisiae, CDRE-lacZ, luminescence, secondary (AID 2388); type: functional, cell-based;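 also: yeast reporter cells carrying a calcineurin-responsive lacZ construct stimulated with calcium chloride; luminescent beta-galactosidase reporter signal in whole cells rather than isolated phosphatase activity; potency for inhibition where a drop in reporter signal means calcineurin blockade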
T1 sequence (B9W6M3 whole entry): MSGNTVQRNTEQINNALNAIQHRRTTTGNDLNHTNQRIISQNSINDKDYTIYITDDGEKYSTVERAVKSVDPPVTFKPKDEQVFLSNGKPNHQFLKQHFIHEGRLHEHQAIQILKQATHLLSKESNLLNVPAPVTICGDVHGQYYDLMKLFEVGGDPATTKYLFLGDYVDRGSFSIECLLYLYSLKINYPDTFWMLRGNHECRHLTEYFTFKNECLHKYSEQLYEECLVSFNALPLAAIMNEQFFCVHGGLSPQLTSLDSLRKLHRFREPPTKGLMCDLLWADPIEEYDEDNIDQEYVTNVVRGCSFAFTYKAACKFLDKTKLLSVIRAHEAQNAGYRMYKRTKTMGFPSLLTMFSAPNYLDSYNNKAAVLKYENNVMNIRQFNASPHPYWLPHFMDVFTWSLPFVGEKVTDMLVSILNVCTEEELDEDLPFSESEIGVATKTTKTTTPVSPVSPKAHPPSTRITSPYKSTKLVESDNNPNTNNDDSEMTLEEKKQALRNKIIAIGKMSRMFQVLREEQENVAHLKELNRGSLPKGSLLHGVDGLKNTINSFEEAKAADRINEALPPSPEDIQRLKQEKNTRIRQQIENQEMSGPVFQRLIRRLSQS

[7] = molecular target: T2, Polyadenylate-binding protein 1 (Homo sapiens, UniProt P11940); assay: PABP1 MLLE–PAM2 interaction inhibitors, dose response, miRNA deadenylation inhibitor project, biochemical, fluorescence polarization, Cy5-PAM2 peptide, secondary (AID 602260); type: functional; conditions: read-out: IC50_Mean
T2 sequence (P11940 whole entry): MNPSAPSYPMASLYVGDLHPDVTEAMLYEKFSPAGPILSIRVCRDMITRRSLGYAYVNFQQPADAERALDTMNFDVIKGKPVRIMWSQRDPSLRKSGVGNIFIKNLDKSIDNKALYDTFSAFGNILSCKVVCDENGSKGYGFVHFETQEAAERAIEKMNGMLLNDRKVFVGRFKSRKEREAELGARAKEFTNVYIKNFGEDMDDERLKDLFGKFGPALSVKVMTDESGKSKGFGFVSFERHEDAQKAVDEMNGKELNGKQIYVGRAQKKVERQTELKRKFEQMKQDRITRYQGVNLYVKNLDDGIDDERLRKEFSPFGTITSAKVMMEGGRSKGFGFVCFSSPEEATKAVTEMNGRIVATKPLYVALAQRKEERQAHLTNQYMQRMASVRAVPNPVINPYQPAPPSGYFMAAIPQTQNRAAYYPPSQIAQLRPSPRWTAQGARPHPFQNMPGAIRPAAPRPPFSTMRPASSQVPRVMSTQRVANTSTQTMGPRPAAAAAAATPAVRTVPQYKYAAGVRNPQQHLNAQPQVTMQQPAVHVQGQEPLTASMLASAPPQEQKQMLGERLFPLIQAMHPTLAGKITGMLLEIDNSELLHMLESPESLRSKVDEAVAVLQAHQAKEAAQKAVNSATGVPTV

[8] = molecular target: T2, Polyadenylate-binding protein 1; assay: PABP1 MLLE–PAM2 binding inhibitor potency, dose response, biochemical, fluorescence polarization, FITC-PAM2 peptide (AID 602259); type: functional; conditions: read-out: IC50_Mean
[9] = molecular target: T3, Hexokinase HKDC1 (Homo sapiens, UniProt Q2TB90); assay: SAR analysis of small molecule inhibitors of hexokinase domain containing I (HKDC1). [Related pubchem assays (depositor defined):AID493160, AID493190]; type: functional
T3 sequence (Q2TB90 whole entry): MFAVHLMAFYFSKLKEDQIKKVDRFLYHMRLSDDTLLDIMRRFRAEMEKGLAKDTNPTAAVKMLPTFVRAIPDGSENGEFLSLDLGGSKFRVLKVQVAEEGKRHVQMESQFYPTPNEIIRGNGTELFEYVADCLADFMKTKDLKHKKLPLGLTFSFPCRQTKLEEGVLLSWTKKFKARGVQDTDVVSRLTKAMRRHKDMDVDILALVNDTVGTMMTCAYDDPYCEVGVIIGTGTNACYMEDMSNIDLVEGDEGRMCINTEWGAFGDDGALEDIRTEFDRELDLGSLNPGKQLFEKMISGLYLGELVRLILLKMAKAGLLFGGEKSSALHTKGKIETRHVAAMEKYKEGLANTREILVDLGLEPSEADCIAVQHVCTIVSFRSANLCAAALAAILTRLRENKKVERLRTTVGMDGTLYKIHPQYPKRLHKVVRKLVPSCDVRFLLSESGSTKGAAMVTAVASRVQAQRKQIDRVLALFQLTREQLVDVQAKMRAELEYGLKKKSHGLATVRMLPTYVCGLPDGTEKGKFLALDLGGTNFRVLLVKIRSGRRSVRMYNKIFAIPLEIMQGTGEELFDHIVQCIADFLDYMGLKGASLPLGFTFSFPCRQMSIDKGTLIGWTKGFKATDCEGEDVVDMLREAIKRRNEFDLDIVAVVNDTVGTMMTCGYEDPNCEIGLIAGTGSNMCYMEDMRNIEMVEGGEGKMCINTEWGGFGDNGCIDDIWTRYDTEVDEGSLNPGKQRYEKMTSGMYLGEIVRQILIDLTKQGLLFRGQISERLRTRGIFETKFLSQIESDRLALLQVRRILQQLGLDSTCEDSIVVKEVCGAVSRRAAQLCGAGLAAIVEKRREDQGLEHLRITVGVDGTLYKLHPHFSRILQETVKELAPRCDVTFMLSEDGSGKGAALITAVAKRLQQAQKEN

[10] = molecular target: T4, Hexokinase-1 (Homo sapiens, UniProt P19367); assay: SAR analysis of small molecule inhibitors of hexokinase domain containing I (HKDC1) in the hexokinase 1 selectivity assay. [Related pubchem assays (depositor defined):AID493160, AID493190]; type: functional
T4 sequence (P19367 whole entry): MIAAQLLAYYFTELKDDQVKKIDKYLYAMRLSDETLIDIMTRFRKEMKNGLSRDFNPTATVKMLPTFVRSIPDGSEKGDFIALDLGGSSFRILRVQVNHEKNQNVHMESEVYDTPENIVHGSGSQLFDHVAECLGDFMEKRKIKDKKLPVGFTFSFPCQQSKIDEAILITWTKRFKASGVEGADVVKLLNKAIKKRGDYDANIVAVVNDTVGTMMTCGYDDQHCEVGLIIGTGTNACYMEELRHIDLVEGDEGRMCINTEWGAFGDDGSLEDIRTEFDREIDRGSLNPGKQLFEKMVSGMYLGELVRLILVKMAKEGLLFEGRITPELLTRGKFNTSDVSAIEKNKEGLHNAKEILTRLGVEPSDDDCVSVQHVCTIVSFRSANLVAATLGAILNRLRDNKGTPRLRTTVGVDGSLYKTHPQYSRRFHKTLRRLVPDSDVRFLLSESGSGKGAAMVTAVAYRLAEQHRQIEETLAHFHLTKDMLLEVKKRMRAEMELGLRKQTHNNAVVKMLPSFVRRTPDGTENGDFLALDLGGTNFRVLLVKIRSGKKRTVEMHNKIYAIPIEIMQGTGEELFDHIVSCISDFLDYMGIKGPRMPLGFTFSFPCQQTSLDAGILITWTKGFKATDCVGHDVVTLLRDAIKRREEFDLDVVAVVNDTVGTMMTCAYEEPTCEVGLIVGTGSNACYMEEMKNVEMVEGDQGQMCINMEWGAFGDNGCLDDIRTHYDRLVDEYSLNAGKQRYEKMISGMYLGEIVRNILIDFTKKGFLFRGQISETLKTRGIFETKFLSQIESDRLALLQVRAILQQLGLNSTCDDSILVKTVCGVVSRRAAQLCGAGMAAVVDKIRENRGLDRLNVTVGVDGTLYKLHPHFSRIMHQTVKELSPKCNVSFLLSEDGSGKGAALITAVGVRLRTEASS

[11] = molecular target: Dual specificity tyrosine-phosphorylation-regulated kinase 1A (Rattus norvegicus, UniProt Q63470); type: biochemical, Homo sapiens
[12] = molecular target: T5, Rac GTPase-activating protein 1 (Homo sapiens, UniProt Q9H0H5); assay: MgcRacGAP GTPase-activating activity inhibitors, confirmation, biochemical, ADP Hunter fluorescence, primary and confirmatory (AID 624330); type: functional
T5 sequence (Q9H0H5 whole entry): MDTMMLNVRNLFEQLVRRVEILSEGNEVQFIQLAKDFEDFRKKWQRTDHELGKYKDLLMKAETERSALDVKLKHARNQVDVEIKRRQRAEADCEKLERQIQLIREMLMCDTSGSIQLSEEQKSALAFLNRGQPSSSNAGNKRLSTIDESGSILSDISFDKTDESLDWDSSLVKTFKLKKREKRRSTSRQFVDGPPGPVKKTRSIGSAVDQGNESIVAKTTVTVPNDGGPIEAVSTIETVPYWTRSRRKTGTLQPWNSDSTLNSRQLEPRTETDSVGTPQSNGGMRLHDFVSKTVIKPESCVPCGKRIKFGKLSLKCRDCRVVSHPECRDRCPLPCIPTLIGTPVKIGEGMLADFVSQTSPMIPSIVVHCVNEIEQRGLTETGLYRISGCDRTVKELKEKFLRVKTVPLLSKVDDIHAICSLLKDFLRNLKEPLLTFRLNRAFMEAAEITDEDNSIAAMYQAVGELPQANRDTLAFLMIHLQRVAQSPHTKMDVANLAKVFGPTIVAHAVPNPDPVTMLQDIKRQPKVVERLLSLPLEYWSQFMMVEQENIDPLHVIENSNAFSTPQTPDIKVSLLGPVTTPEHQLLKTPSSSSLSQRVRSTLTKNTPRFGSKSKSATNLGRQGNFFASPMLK

[13] = Luminescence Cell-Based Dose Retest to Confirm Inhibitors of Cancer Stem Cells. [Related pubchem assays (depositor defined):AID2717, AID2721]; type: functional; conditions: Homo sapiens
[14] = test system: INS1; assay: beta cell apoptosis inhibitors, cytokine rescue, dose response, luminescence, retest (AID 449756); type: functional, cell-based; conditions: Rattus norvegicus;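 also: cell death triggered by IL-1 beta plus TNF-alpha plus IFN-gamma mixture; protective hits raise ATP signal compared with cytokine alone wells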
[15] = cytotoxicity toward NIH3T3 fibroblasts, dose response, counter-screen, cell-based, ATP luminescence, mouse fibroblasts (AID 2010); type: functional;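 also: cells exposed to compound for about 90 hours before reading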
[16] = control 3'UTR Renilla luciferase suppression, dose response, counter-screen for Shn3 inhibitor project, cell-based, Clone20-Shn3RL, cherry-picked (AID 624133); type: functional
[17] = HepG2 cell cytotoxicity, dose response, cytotoxicity control for Shn3 inhibitor project, CellTiter-Glo, cherry-picked (AID 624134); type: functional, cell-based
[18] = molecular target: T6, Microphthalmia-associated transcription factor (Homo sapiens, UniProt O75030); assay: TRPM1 promoter luciferase signal decrease, dose response, MITF inhibitor project, cell-based, SK-MEL-5, cherry-picked, set 3 (AID 493073); type: functional
T6 sequence (O75030 whole entry): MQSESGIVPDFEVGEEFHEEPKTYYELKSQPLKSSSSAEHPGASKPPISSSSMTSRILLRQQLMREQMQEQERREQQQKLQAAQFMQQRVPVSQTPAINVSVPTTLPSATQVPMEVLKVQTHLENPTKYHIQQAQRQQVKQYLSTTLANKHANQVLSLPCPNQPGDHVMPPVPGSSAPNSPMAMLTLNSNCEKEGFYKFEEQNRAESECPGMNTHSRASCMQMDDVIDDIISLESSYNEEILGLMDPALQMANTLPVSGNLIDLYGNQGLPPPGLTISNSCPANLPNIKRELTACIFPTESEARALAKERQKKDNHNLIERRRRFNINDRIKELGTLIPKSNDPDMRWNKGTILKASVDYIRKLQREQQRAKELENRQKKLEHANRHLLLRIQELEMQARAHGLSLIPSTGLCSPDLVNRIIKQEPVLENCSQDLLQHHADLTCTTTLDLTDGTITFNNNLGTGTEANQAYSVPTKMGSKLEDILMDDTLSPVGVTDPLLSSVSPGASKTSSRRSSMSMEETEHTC

[19] = test system: A-375; assay: MITF: Counter assay: A375 proliferation Measured in Cell-Based System Using Plate Reader - 2084-03_Inhibitor_Dose_DryPowder_Activity. [Related pubchem assays (depositor defined):AID488944]; type: functional; conditions: Homo sapiens
[20] = Shn3 3'UTR reporter inhibitors, dose response, cell-based, Clone20 osteoblasts, firefly luciferase, cherry-picked (AID 624132); type: functional;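 also: firefly luciferase luminescence from reporter carrying the Shn3 3'UTR in osteoblasts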
[21] = inhibitors of intracellular T. cruzi replication, confirmation, NIH3T3 host cells, beta-gal luminescence (AID 2044); type: functional, cell-based;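 also: intracellular parasites grown in NIH/3T3 mouse fibroblasts as host cells; luminescent beta-galactosidase reporter signal from transgenic T. cruzi replicating inside host cells; inhibitors lower the luminescence signal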
[22] = molecular target: Large T antigen (Simian virus 40, UniProt P03070); type: functional, Betapolyomavirus macacae;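 also: Confirmatory-stage PubChem screen for compounds that inhibit SV40 T antigen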
Sequence of Large T antigen (P03070 whole entry): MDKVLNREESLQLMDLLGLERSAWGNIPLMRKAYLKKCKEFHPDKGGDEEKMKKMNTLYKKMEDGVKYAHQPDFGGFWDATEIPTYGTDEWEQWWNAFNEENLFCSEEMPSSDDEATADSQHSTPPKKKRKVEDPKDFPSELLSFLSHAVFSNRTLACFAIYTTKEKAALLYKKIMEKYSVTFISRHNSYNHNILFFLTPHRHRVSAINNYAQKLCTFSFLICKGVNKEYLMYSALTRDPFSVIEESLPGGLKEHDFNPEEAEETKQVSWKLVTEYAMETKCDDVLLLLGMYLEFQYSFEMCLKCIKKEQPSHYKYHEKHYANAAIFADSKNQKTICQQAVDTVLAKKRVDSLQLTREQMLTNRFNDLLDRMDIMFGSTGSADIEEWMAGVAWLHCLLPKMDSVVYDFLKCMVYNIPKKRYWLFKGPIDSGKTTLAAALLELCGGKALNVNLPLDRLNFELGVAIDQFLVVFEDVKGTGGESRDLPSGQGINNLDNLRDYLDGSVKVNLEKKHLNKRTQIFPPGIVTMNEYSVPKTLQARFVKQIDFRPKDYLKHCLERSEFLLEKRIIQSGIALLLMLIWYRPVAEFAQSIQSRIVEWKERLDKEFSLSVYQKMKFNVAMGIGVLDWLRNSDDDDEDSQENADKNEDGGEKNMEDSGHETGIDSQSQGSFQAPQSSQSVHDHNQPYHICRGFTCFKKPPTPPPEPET

Compound: COC/C=C/C1=CC2=CC(=O)C(C)(OC(=O)c3cnc4ccccc4n3)C(=O)C2=CN1Cc1ccc(OC)cc1 (configuration not stated)
- CC50 [1]: 39.2 µM (active)

Compound: CCc1ccccc1N=C(S)N=Nc1c(O)n(C)c2ccc(S(=O)(=O)N3CCOCC3)cc12
- EC50 [2]: 40.9 µM (active)
- EC50 [3]: > 150 µM (inconclusive)
- EC50 [4]: > 38 µM (not active)
- IC50 [5]: 13.3 µM (active)
- EC50 [6]: > 180 µM (inactive)

Compound: Cc1ccc(NC(=O)CSC(N)=O)cc1Cl
- IC50 [7]: > 66 µM (inactive)
- IC50 [8]: > 66 µM (inactive)

Compound: O=C(Nc1nnc(SCc2ccc(Cl)cc2)s1)c1ccc2ncsc2c1
- IC50 [9]: > 80 µM (inactive)
- IC50 [10]: > 80 µM (inactive)

Compound: COc1ccccc1/C=C/c1nc2ccccc2c(=O)n1Cc1ccccc1
- IC50 [9]: > 80 µM (inactive)
- IC50 [10]: > 80 µM (inactive)

Compound: Nc1cc2c([N+](=O)[O-])cccc2o1
- AC50 [11]: 16.6 µM (active)
- IC50 [12]: 128 µM (active)

Compound: O=C(Nc1cccs1)Nc1c(F)c(F)c(F)c(F)c1F
- IC50 [7]: > 66 µM (inactive)
- IC50 [8]: > 66 µM (inactive)

Compound: O=C(Nc1cccc(C(=O)Nc2cccc(C(F)(F)F)c2)c1)c1ccncc1
- IC50 [9]: > 80 µM (inactive)
- IC50 [10]: > 80 µM (inactive)

Compound: O=c1cc(-c2ccc(O)c(O)c2)oc2cc(O[C@@H]3O[C@H](CO)[C@@H](O)[C@H](O)[C@H]3O)cc(O)c12 [GALUTEOLIN]
- AC50 [11]: 12.7 µM (active)

Compound: O=S(=O)(c1ccc(Cl)cc1)N1CCN(Cc2ccc(O)c3ncccc23)CC1
- EC50 [3]: 16.6 µM (active)
- AC50 [13]: 5.13 µM (active)
- AC50 [14]: 2.42 µM (active)
- EC50 [15]: > 30 µM (not active)
- AC50 [16]: 16.4 µM (active)
- AC50 [17]: 43.9 µM (active)
- EC50 [4]: 2.53 µM (active)
- AC50 [18]: 4.37 µM (active)
- AC50 [19]: 40.6 µM (active)
- AC50 [20]: 3.01 µM (active)
- EC50 [21]: 1.37 µM (active)

Compound: O=C(O)/C=C/c1ccc(O)cc1 [COUMARIC ACID]
- AC50 [11]: 10.9 µM (active)
- IC50 [22]: 18.9 µM (active)

Reference: ChEMBL document CHEMBL1201862, “PubChem BioAssay data set” (2004)
